{"source": "patent US20220339187A1", "about": "“ANTIMICROBIAL PEPTIDE-SELENIUM NANOPARTICLES” (The University of Melbourne, priority 2019, published 2022)", "key": {"[1]": {"system": "multidrug-resistant K. pneumoniae (MDR)", "test": "Bacterial growth inhibition test / MIC calculation", "type": "cell-based, Klebsiella pneumoniae", "details": "MHB, 37° C., growth curves, linear regression, mean ± s.d.", "source_text": "The bacterial strains methicillin-sensitive Staphylococcus aureus (S. aureus) ATCC 29213, methicillin-resistant Staphylococcus aureus (MRSA) ATCC 43300, Enterococcus faecalis (E. faecalis) ATCC 29212, Escherichia coli (E. coli) ATCC 25922, Acinetobacter baumannii (A. baumannii) 2208 ATCC19606, Pseudomonas aeruginosa (P. aeruginosa) strain PAO1-LAC ATCC 47085, Klebsiella pneumoniae (K. pneumoniae) ATCC 13883 and multidrug-resistant K. pneumoniae (MDR), were obtained from the culture collection of the Oral Health Cooperative Research Centre, The Melbourne Dental School, University of Melbourne, Australia. Bacteria were cultured in Mueller Hinton Broth (MHB) at 37° C. […] The plate was put into an iEMS microplate reader (Pathtech Pty Ltd, Melbourne, Australia) at a temperature of 37° C. to monitor bacterial growth by measuring the absorbance at wavelength of 630 nm for 24 h. Background absorbance values due to the Se NP solutions were subtracted from the measured absorbance values.\nThe absorbance values from bacteria growth curves at the time when the stationary phase starts (tsps) were taken and calculated as a percentage of the untreated control (Z=OD5/OD6×100%, where OD5 represents absorbance at tsps of experimental groups and OD6 represents the absorbance at tsps of the negative control group; all absorbance values had the culture medium background values subtracted). […]"}, "K. pneumoniae ATCC 13883": {"system": "K. pneumoniae ATCC 13883", "test": "Adenosine triphosphate (ATP) test (BacTiter-Glo)", "type": "cell-based, Klebsiella pneumoniae", "details": "1 h at 37° C.", "description": "The bacterial strains methicillin-sensitive S. aureus ATCC 29213, E. faecalis ATCC 29212, E. coli ATCC 25922 and K. pneumoniae ATCC 13883 were cultured in MHB at 37° C. 50 μL of Se NPs, Se NP-ε-PL or pure ε-PL in PBS solution was added into each well of 96-well microplates. 50 μL MHB with 2.5×10^6 cells/mL bacteria was then added into each well. After 1h incubation at 37° C., the 96-well microplates were transferred to room temperature for a further 30 min incubation period. 100 μL of BacTiter-Glo™ reagent (Promega, Australia) was added into each well, then mixed on an orbital shaker and incubated for 5 min. The luminescence was recorded using a microplate reader (PerkinElmer 1420 Multilabel Counter VICTOR3).\nA standard curve was generated by adopting the following steps. 10-fold serial dilutions of ATP from 1 μM to 10 pM in 100 μL MHB were prepared. 100 μL of BacTiter-Glo™ reagent was added into each well, then mixed on an orbital shaker and incubated for 1 min. The luminescence was recorded using a microplate reader (PerkinElmer 1420 Multilabel Counter VICTOR3)."}, "[2]": {"system": "methicillin-sensitive S. aureus (MSSA) ATCC 29213", "test": "ROS production test (CellROX Orange, flow cytometry)", "type": "cell-based, Staphylococcus aureus", "details": "6.25 or 12.5 μg/ml", "description": "The bacterial strains methicillin-sensitive S. aureus (MSSA) ATCC 29213, E. faecalis ATCC 29212, E. coli ATCC 25922 were cultured in MHB at 37° C. 50 μL of different concentration of Se NPs, Se NP-ε-PL or pure ε-PL in PBS solution was added into each well of a 96-well microplate. 50 μL MHB with 2.5×10^6 cells/mL bacteria was then added into each well. After 90 min incubation at 37° C., CellROX® Orange Reagent was added into each well at a final concentration of 750 nM. The cells were incubated for a further 1 h. The fluorescence from the CellROX Orange Reagent was measured on FL-3 (red fluorescence channel) using the Cell Lab Quanta SC MPL flow cytometer (Beckman Coulter). Two independent experiments were done for this test, and two technical replicates were adopted for each independent experiment."}, "E. faecalis ATCC 29212": {"system": "E. faecalis ATCC 29212", "test": "Membrane potential change test (BacLight, DiOC2(3))", "type": "cell-based, Enterococcus faecalis", "details": "6.25 or 12.5 μg/ml", "description": "Membrane potential change was measured using a BacLight Bacterial Membrane Potential Kit (Invitrogen). The bacterial strain methicillin-sensitive S. aureus (MSSA) ATCC 29213, E. faecalis ATCC 29212, E. coli ATCC 25922 were cultured in MHB at 37° C. 50 μL of different concentrations of Se NPs, Se NP-ε-PL or pure ε-PL in PBS solution was added into each well of 96-well microplates. 50 μL MHB with 2.5×10^6 cells/mL bacteria was then added into each well. 50 μL MHB with 2.5×10^6 cells/mL bacteria was added to 50 μL PBS to act as untreated control. Carbonyl cyanide 3-chlorophenylhydrazone (CCCP) was added to untreated control at a final concentration of 5 μM to act as fully depolarized control. 3,3′-Diethyloxacarbocyanine Iodide (DiOC2(3)) was added to all wells at a final concentration of […]. […] The untreated (polarized) and CCCP-treated (fully depolarized) controls were used to determine the percentage of depolarized cells. Two independent experiments were done for this test, and two technical replicates were adopted for each independent experiment."}, "mice": {"system": "mice", "details": "dosage of 5 g/kg; cited from earlier work"}}, "data": [{"substance": "ε-poly-L-lysine [ε-PL]", "values": [{"measurement": "MIC", "setting": "[1]", "value": "26.5 ± 0.5", "unit": "µg/mL"}, {"measurement": "ATP depletion", "setting": "K. pneumoniae ATCC 13883", "value": "higher ATP depletion effect than Se NPs"}, {"measurement": "ROS production (high ROS production cells)", "setting": "[2]", "value": "slight promotion of ROS production"}, {"measurement": "depolarisation of cell membrane", "setting": "E. faecalis ATCC 29212", "value": "depolarized cell membranes"}, {"measurement": "mortality, acute oral toxicity", "setting": "mice", "value": "no mortality"}]}]}
